Test systems include K-562 leukemia; MALME-3M melanoma; MCF7 breast; NCI-H23 lung; NCI-H460 lung; SF-295 CNS; SK-MEL-5 melanoma; SNB-75 CNS; T-47D breast; BT-549 breast.
What all share (test): inhibition of tumour cell growth, NCI panel, 48 h

This note sets out measurements from PubChem BioAssay (NCI).

Values joined by “and” are separate entries in the source; they are usually repeats but may differ in a detail not shown here. Equal values may be shown once.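 Where inhibition never reached the appropriate level, the endpoint shown equals the highest concentration tested. Otherwise, values were interpolated linearly from a five-concentration, 48-hour dose response in 96-well plates. Abbreviation: GI50, concentration required for 50% inhibition of growth. TGI: concentration producing complete growth inhibition.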

For `CC(C)(C)C1=C(Br)C(OC(=O)C(F)(F)F)(C(C)(C)C)OP1(=O)c1ccccc1` (configuration not stated), the TGI in the experiment on K-562 leukemia, in the experiment on MALME-3M melanoma, with MCF7 breast, with NCI-H23 lung, with NCI-H460 lung and with SF-295 CNS was > 100 µM in each case. In addition, the TGI in the experiment with SK-MEL-5 melanoma, with SNB-75 CNS and with T-47D breast was > 100 µM in each case.

As to `CC(=O)c1sc2[n+](c1C)C(=O)/C(=C\c1ccccc1Cl)S2`, the TGI in the experiment with K-562 leukemia came out at 80.6 µM; with MALME-3M melanoma, 32.4 µM; in the experiment on MCF7 breast, 29.8 µM; with NCI-H23 lung it was 38.5 µM; in the experiment with NCI-H460 lung it was 30.2 µM; with SF-295 CNS, 33 µM. In addition, the TGI was 23.4 µM in the experiment on SK-MEL-5 melanoma, 65.9 µM in the experiment on SNB-75 CNS and 36.2 µM in the experiment with T-47D breast.

On to `CSCCCNC(=O)[C@H](CSC)NC(=O)c1csc(CCNC(=O)[C@@H](NSc2ccccc2[N+](=O)[O-])C(C)O)n1` (some centres not stated), for which the TGI with BT-549 breast, in the experiment with K-562 leukemia, in the experiment on MALME-3M melanoma, with MCF7 breast, with NCI-H23 lung and with NCI-H460 lung was > 100 µM each time. Further, the TGI in the experiment on SF-295 CNS, in the experiment on SK-MEL-5 melanoma and with SNB-75 CNS was > 100 µM in each case.

For `C(=C/c1nc2ccccc2o1)/c1ccc2c(c1)OCO2`, the TGI is > 65.3 µM in the experiment on K-562 leukemia; > 95.9 µM with MALME-3M melanoma; > 79.8 µM in the experiment with MCF7 breast; > 100 µM in the experiment with NCI-H23 lung; > 100 µM with NCI-H460 lung; 23.1 µM in the experiment with SF-295 CNS. The TGI was 56.6 µM in the experiment on SK-MEL-5 melanoma and > 63.8 µM with SNB-75 CNS.

On to `N#Cc1nc(-c2cccc(-c3nc(C#N)c(N)o3)n2)oc1N`, for which the TGI in the experiment on K-562 leukemia, in the experiment on MALME-3M melanoma, in the experiment with MCF7 breast, in the experiment with NCI-H23 lung, in the experiment with NCI-H460 lung and in the experiment with SF-295 CNS was > 100 µM each time. Besides, the TGI with SK-MEL-5 melanoma, in the experiment with SNB-75 CNS and in the experiment with T-47D breast was > 100 µM in each case.

Regarding `CC1OC(=O)C(C(C)C)NC(=O)C(C(C)C)OC(=O)C(C(C)C)NC(=O)C(C)OC(=O)C(C(C)C)NC(=O)C(C(C)C)OC(=O)C(C(C)C)NC(=O)C(C)OC(=O)C(C(C)C)NC(=O)C(C(C)C)OC(=O)C(C(C)C)NC1=O` (configuration not stated), the GI50 in the experiment on K-562 leukemia, in the experiment with NCI-H23 lung, with NCI-H460 lung and in the experiment on SF-295 CNS was < 0.0001 µM each time. Besides, the TGI in the experiment with K-562 leukemia is 6.36 µM; with MALME-3M melanoma it was 3.63 µM; in the experiment on MCF7 breast it was 0.0686 µM; in the experiment on NCI-H23 lung, 0.0503 µM; in the experiment on NCI-H460 lung it was 0.182 µM and 0.185 µM; in the experiment with SNB-75 CNS it was 0.00378 µM. In addition, the TGI with T-47D breast is 0.0138 µM.

As to `CCN(CC)CCO[Si](OCCN(CC)CC)(OCCN(CC)CC)OCCN(CC)CC`, the TGI in the experiment with MALME-3M melanoma, in the experiment with NCI-H23 lung, in the experiment on NCI-H460 lung, in the experiment on SF-295 CNS, with SK-MEL-5 melanoma and in the experiment on SNB-75 CNS was > 100 µM each time.

As to `Cc1cc(=O)oc2c(CNC(CC(C)C)C(=O)O)c(O)ccc12` (configuration not stated), the TGI in the experiment on K-562 leukemia, in the experiment on MALME-3M melanoma, in the experiment with MCF7 breast, in the experiment with NCI-H23 lung, in the experiment with NCI-H460 lung and in the experiment on SF-295 CNS was > 100 µM throughout. Further, the TGI with SK-MEL-5 melanoma, in the experiment with SNB-75 CNS and in the experiment on T-47D breast was > 100 µM each time.

With `NC(=O)Oc1ccccc1`, the TGI in the experiment with K-562 leukemia, in the experiment with MCF7 breast, in the experiment with NCI-H23 lung, in the experiment with NCI-H460 lung, with SF-295 CNS and in the experiment with SK-MEL-5 melanoma was > 100 µM each time. In addition, the TGI in the experiment on SNB-75 CNS and in the experiment with T-47D breast was > 100 µM each time.

Turning to `CCn1c2ccccc2c2cc(Nc3cc(C)[nH]c(=O)n3)ccc21`, the TGI with K-562 leukemia, with MALME-3M melanoma, in the experiment on MCF7 breast, in the experiment with NCI-H23 lung, with NCI-H460 lung and in the experiment with SF-295 CNS was > 100 µM each time. Besides, the TGI in the experiment with T-47D breast is > 100 µM.

With `S=c1nc[nH]c2c1ncn2C1CCCO1` (configuration not stated), the TGI with K-562 leukemia, in the experiment with MALME-3M melanoma, in the experiment on NCI-H23 lung, in the experiment with NCI-H460 lung, in the experiment with SF-295 CNS and in the experiment on SK-MEL-5 melanoma was > 100 µM each time. Further, in the experiment on SNB-75 CNS, the TGI was > 100 µM.

With `Cc1ccc(S(=O)(=O)Nn2c(O)c(C#N)c(-c3ccc([N+](=O)[O-])cc3)c(C#N)c2=O)cc1`, the TGI in the experiment with BT-549 breast, with K-562 leukemia, in the experiment with MALME-3M melanoma, in the experiment with MCF7 breast, with NCI-H460 lung and in the experiment with SF-295 CNS was > 100 µM throughout. The TGI with SK-MEL-5 melanoma and in the experiment on SNB-75 CNS was > 100 µM throughout.

With `CCOC(=O)C(C)N1C(=O)c2ccccc2S1(=O)=O` (configuration not stated), the TGI in the experiment with K-562 leukemia, in the experiment with MALME-3M melanoma, in the experiment with MCF7 breast, in the experiment on NCI-H23 lung, in the experiment with NCI-H460 lung and with SF-295 CNS was > 100 µM throughout. The TGI in the experiment with SK-MEL-5 melanoma and in the experiment on SNB-75 CNS was > 100 µM each time.

In the case of `CCOC(=O)C1=C(C)N(C2OC(COC(=O)c3ccccc3)C(OC(=O)c3ccccc3)C2OC(=O)c2ccccc2)C(=S)NC1c1ccccc1` (configuration not stated), the TGI was 91.7 µM in the experiment on K-562 leukemia; 78.8 µM with MALME-3M melanoma; > 100 µM in the experiment with NCI-H23 lung; > 100 µM in the experiment on NCI-H460 lung; > 100 µM with SF-295 CNS; 42.8 µM in the experiment on SK-MEL-5 melanoma. Also, in the experiment with SNB-75 CNS, the TGI was > 100 µM.

`CN1CCC2(CC1)C(=NC1CCCCC1)NC(=O)N2c1ccccc1`: the TGI with MALME-3M melanoma, in the experiment with MCF7 breast, in the experiment with NCI-H23 lung, with NCI-H460 lung, in the experiment on SF-295 CNS and in the experiment with SK-MEL-5 melanoma was > 100 µM each time. Further, the TGI in the experiment on SNB-75 CNS and in the experiment with T-47D breast was > 100 µM throughout.

On to `Cc1ccccc1NC(=O)Cc1csc(N=Nc2c(O)[nH]c3ccccc23)n1`, for which the TGI with K-562 leukemia is > 100 µM; in the experiment on MALME-3M melanoma it was > 100 µM; in the experiment on MCF7 breast, > 100 µM; in the experiment with NCI-H23 lung it was > 100 µM; in the experiment with NCI-H460 lung, > 100 µM; in the experiment on SF-295 CNS, 38 µM. Besides, the TGI with SK-MEL-5 melanoma and with SNB-75 CNS was > 100 µM in each case.

On to `O=C(CCC1CCCCN1)Nc1ccc2c(c1)C(=O)c1ccc(NC(=O)CCN3CCCCC3)cc1C2=O` (configuration not stated), for which the TGI in the experiment on K-562 leukemia was determined as 4.97 µM; with MALME-3M melanoma it was 2.81 µM; in the experiment with NCI-H23 lung, 5.27 µM; with NCI-H460 lung, 23.9 µM; in the experiment with SF-295 CNS it was 20.8 µM; in the experiment with SK-MEL-5 melanoma, 3.27 µM. Also, the TGI in the experiment with SNB-75 CNS was 16.4 µM.

On to `CC(C)c1ccc(/C=C2\CSCC3=C2N=C2SCC(=O)N2C3c2ccc(C(C)C)cc2)cc1` (configuration not stated), for which the TGI in the experiment with K-562 leukemia, in the experiment with MALME-3M melanoma, in the experiment on MCF7 breast, with NCI-H23 lung, with NCI-H460 lung and with SF-295 CNS was > 100 µM throughout. Moreover, the TGI in the experiment on SK-MEL-5 melanoma, in the experiment with SNB-75 CNS and in the experiment on T-47D breast was > 100 µM each time.

Regarding `CC(C)=NOC(=O)Nc1cccc2c1OCO2`, the TGI in the experiment with MALME-3M melanoma, in the experiment with MCF7 breast, with NCI-H23 lung, with NCI-H460 lung, with SF-295 CNS and with SK-MEL-5 melanoma was > 100 µM in each case. For the same compound, the TGI in the experiment with SNB-75 CNS and in the experiment with T-47D breast was > 100 µM throughout.

In the case of `CCOC(C)OC1CC(n2cc(C)c(=O)[nH]c2=O)OC1CO` (configuration not stated), the TGI in the experiment with K-562 leukemia, in the experiment with MALME-3M melanoma, in the experiment on NCI-H23 lung, in the experiment on NCI-H460 lung and in the experiment with SF-295 CNS was > 100 µM throughout.

As to `Cc1csc(-n2c(C)nc3cc(Cl)ccc3c2=O)n1`, the TGI with BT-549 breast, with K-562 leukemia, in the experiment on MCF7 breast, in the experiment with NCI-H23 lung, with NCI-H460 lung and in the experiment on SF-295 CNS was > 100 µM each time. The TGI in the experiment with SK-MEL-5 melanoma and with SNB-75 CNS was > 100 µM throughout.

For `CCCCC[C@H]1CCCCCCCCCC(=O)OC2C(O[C@@H]3OC(C)[C@H](OC(=O)[C@@H](C)CC)C(O[C@@H]4OC(C)[C@H](O)C(O)[C@@H]4O)[C@@H]3OC(=O)[C@H](C)CC)[C@H](OC3C(O)[C@@H](O)C(C)O[C@H]3O1)OC(CO)[C@H]2O` (some centres not stated), the TGI with K-562 leukemia came to 32.9 µM; in the experiment on MALME-3M melanoma it was 28.8 µM; in the experiment with MCF7 breast it was 34.7 µM; in the experiment on NCI-H23 lung, 34 µM; in the experiment with NCI-H460 lung, 32.5 µM; with SF-295 CNS it was 32.7 µM. Further, the figures for the TGI in the experiment with SK-MEL-5 melanoma and in the experiment on T-47D breast were 30.9 µM and 33.3 µM, respectively.

With `CN/N=C(\C(=O)Nc1ccc(C)c(C)c1)C(C(=O)OC)c1nc2ccc([N+](=O)[O-])cc2[nH]c1=O` (configuration not stated), the TGI in the experiment on K-562 leukemia, in the experiment on NCI-H23 lung, in the experiment on NCI-H460 lung, with SF-295 CNS, in the experiment on SK-MEL-5 melanoma and in the experiment with SNB-75 CNS was > 100 µM in each case.
